Square brackets hold non-standard residues; d marks the D form. Peptide text beside a SMILES is read from it. * marks the point of attachment. X1 = CN1CC[C@]23c4c5ccc(O)c4O[C@H]2C(NCCSC2CC(=O)N(CCCCCCN4C(=O)CC(*)C4=O)C2=O)CC[C@@]3(O)[C@H]1C5; Hyp = O=C(O)[C@@H]1C[C@@H](O)CN1
Key:
[1] = target: T1, purified human neutrophil elastase (HNE) (Homo sapiens, UniProt P08246); assay: neutrophil elastase inhibition with chromogenic substrate MOS-AAPV-pNA; format: biochemical; details: MOS-AAPV-pNA 0.5 mM, HNE 10-20 nM, pH 7.5, 25 C; read-out: Ki^ss (HNE)
T1 sequence (P08246 30-247 limits assumed): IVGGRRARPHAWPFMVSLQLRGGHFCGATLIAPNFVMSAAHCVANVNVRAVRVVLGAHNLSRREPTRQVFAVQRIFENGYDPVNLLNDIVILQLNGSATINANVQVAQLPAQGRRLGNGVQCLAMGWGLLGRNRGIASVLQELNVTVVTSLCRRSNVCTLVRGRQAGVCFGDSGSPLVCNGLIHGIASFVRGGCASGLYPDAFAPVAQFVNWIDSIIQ

BK2 -receptor = target: T2, BK2 -receptor (Rattus norvegicus, UniProt P25023); assay: rat uterus assay of bradykinin antagonist (BKAn) activity; format: cell-based; details: bradykinin induced uterine contraction
T2 construct: BKAn activity (pA2) was assessed using the rat uterus preparation; from tissue; host or cells: rat uterus
T2 sequence (P25023 1-396): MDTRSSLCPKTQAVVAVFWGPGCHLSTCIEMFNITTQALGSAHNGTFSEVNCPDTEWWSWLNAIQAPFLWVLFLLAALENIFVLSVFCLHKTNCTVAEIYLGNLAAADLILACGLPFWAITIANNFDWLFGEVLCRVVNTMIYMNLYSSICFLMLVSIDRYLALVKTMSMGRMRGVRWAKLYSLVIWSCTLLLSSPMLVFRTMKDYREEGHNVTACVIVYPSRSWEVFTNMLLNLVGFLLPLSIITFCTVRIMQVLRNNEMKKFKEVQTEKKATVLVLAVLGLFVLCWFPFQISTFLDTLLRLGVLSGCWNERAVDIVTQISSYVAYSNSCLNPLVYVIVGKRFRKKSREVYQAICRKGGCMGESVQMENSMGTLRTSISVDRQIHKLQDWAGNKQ

[2] = tested on: mice injected in the hind limb foot pad with formalin; assay: mouse formalin test (inflammatory and neurogenic pain, hind limb licking); format: in vivo; details: for narcotic / behavioral side effects observed in the formalin test: oxymorphone at highest doses 0.9 and 3.0 umoles/kg, CP-0494 over several hours
Description: In order to test the activity of these compounds in vivo, a model of inflammatory and neurogenic pain was used. This model measures the behavioral responses of mice injected in the hind limb foot pad with 50 ul of formalin. Control mice (open circles) show a characteristic bi-phasic response to the injected formalin wherein there is a short lasting initial response followed by a quiescent period which is then followed by a sustained period of hind limb licking. The licking behavior is interpreted to mean that the limb is irritated and painful. The greater the time spent licking, the more painful the stimulus.

cyclooxygenase = assay: rat lung parenchymal strips challenged with arachidonic acid; format: cell-based; details: contraction in response to exogenously applied arachidonic acid
Source text: As mentioned previously, for the COI to work it may need to be dissociated from the BKAn so as to allow for its intracellular penetration. Therefore, in order to evaluate the functional activity of a BKAn/COI heterodimer, CP-0460 was exposed to rat lung parenchymal strips which were then challenged with arachidonic acid. This tissue is known to contain both non-specific esterase activity as well as to convert arachidonic acid to thromboxane (via a cyclooxygenase dependent pathway) which is then ultimately responsible for the smooth muscle contraction observed in this assay.

[3] = freshly obtained normal human plasma; details: 37° C.

Compound | pA2 --Rat Uterus (BK2 -receptor) | narcotic / behavioral side effects observed in the formalin test [2] | also measured
CC(C)(C)c1ccc(C(C)(C)C(=O)Oc2ccc(S(=O)(=O)CCCC(=O)O)cc2)cc1 [CE-1218, 4-(3'-carboxy-propylsulfonyl)phenyl 4-tert-butylphenylisobutyrate] | inactive |  | Ki [1]: 10.5 nM
CC(C)C[C@H](NC(=O)[C@@H](Cc1ccccc1)NC(=O)[C@H](CSC1CC(=O)N(CCCCCCN2C(=O)CC(SCCNC3CC[C@@]4(O)[C@H]5Cc6ccc(O)c7c6[C@@]4(CCN5C)[C@H]3O7)C2=O)C1=O)NC(=O)[C@H](Cc1ccccc1)NC(=O)CNC(=O)[C@@H]1C[C@@H](O)CN1C(=O)[C@@H]1CCCN1C(=O)[C@H](CCCNC(=N)N)NC(=O)[C@H](N)CCCNC(=N)N)C(=O)N[C@@H](CCCNC(=N)N)C(=O)O (some centres unmarked) [CP-0494] (H-[dR]RP[Hyp]GFC(X1)[dF]LR-OH) |  | no observable narcotic effects | 
COc1ccc2c(c1)c(CC(=O)O)c(C)n2C(=O)c1ccc(Cl)cc1 [indomethacin] | no effect |  | log dose ratio shift (cyclooxygenase): 0.998±0.425
DR-R-P-J-G-F-C-DF-L-R |  |  | cleaved bond [3]: Leu8-Arg9
CN1CC[C@]23c4c5ccc(O)c4O[C@H]2C(=O)CC[C@@]3(O)[C@H]1C5 [oxymorphone] |  | significant behavioral obtundation resulting in catalepsy and frank respiratory depression | effect on licking behavior in both phases of the formalin test ([2]; 50 ul formalin in hind limb foot pad): reduces both phases of the licking behavior

Source: US6075120A (priority 1995, dated 2000)
